Assay results as given in patent US6515025B2, “Use of ethynyl alanine amino diol compounds to inhibit enzymatic conversion of angiotensinogen to angiotensin I” (Pharmacia Corporation, priority 1991, dated 2003).
Values joined by “and” are separate entries in the source; they are usually repeats but may differ in a detail not shown here. Identical values can stand only once.

Assay: Oral bioavailability studies in marmosets (plasma concentration by bioassay)
Format: in vivo
Conditions: marmoset; for Plasma Concentrations: individual animals
Description: The bioavailability in marmosets and dogs was determined by sampling the blood via the femoral vein at various time points after administering the renin inhibitor compounds of the invention in polyethylene glycol 400 at an intragastric dose of 10 mg/kg or at an intravenous dose of 1 mg/kg. Compound concentration in plasma was determined using the bioassay technique described below. The percent bioavailability was calculated by dividing the area under the concentration-vs.-time curve obtained from the intragastric experiment by the area under the concentration-vs.-time curve obtained from the intravenous experiment (adjusting for different doses), and multiplying the result by 100%. The bioavailibility of Example 1 compound is 27% in marmosets and 33% in dogs.
Renin inhibitor plasma concentrations were determined by a bioassay. The plasma samples were extracted with acetonitrile and the extract was evaporated to dryness under nitrogen. Residue was dissolved in 4% bovine serum albumin containing 0.9% NaCl and 5% EDTA. The dissolved residue (0.1 ml) was incubated with a reaction mixture containing human plasma (0.12 ml), 5% phenylmethysulfonylfluoride (1.2 ul), 10% neomycin (2.4 ul), 0.5 M TES buffer (pH 7.4, 24 ul), and 0.6 mU/ml recombinant human renin (1000 U/mg, 50 ul) at 37° C. for 90 minutes. The renin activity was determined by a standard angiotensin I radioimmunoassay (New England Nuclear Corp.). The amount of test compound in the plasma was determined by comparing the extent of inhibition of renin activity with that produced by a known amount of test compound added to plasma and analyzed above.

With `C#CC[C@H](NC(=O)C(CC(=O)N(C)CCN(C)C)Cc1ccccc1)C(=O)NC(CC1CCCCC1)[C@@H](O)C(O)CC(C)C` (relative stereo) [Example 1, N1-[1R*-[[[1S,1R*-(cyclohexylmethyl)-2S*,3R*-dihydroxy-5-methylhexyl]amino]carbonyl]-3-butynyl]-N4-[2-(dimethylamino)ethyl]-N4-methyl-2S*-(phenylmethyl)butanediamide] the “Plasma Concentrations” value (IG at 10 mg/kg, Test Run A, 30 min, 10 mg/kg) was 7258 ng/mL and 9322 ng/mL, the “Plasma Concentrations” value (IG at 10 mg/kg, Test Run A, 1 hr, 10 mg/kg) was 1989 ng/mL and 1751 ng/mL and the “Plasma Concentrations” value (IG at 10 mg/kg, Test Run A, 2 hr, 10 mg/kg) was 1525 ng/mL and 1811 ng/mL. The “Plasma Concentrations” value (IG at 10 mg/kg, Test Run A, 3 hr, 10 mg/kg) was 5289 ng/mL and 6935 ng/mL, the “Plasma Concentrations” value (IG at 10 mg/kg, Test Run A, 4 hr, 10 mg/kg) was 742 ng/mL and 1766 ng/mL and 1217 ng/mL and the “Plasma Concentrations” value (IG at 10 mg/kg, Test Run A, 5 hr, 10 mg/kg) was 369 ng/mL and 1397 ng/mL and 945 ng/mL. The “Plasma Concentrations” value (IG at 10 mg/kg, Test Run A, 6 hr, 10 mg/kg) was 3177 ng/mL and 4412 ng/mL, the “Plasma Concentrations” value (IG at 10 mg/kg, Test Run A, 8 hr, 10 mg/kg) was 3036 ng/mL and 3800 ng/mL and the “Plasma Concentrations” value (IG at 10 mg/kg, Test Run B, 30 min, 10 mg/kg) was 1016 ng/mL and 1126 ng/mL. For the same molecule, the “Plasma Concentrations” value (IG at 10 mg/kg, Test Run B, 1 hr, 10 mg/kg) was 416 ng/mL and 5266 ng/mL and 12300 ng/mL, the “Plasma Concentrations” value (IG at 10 mg/kg, Test Run B, 2 hr, 10 mg/kg) was 519 ng/mL and 4847 ng/mL and 13485 ng/mL and the “Plasma Concentrations” value (IG at 10 mg/kg, Test Run B, 3 hr, 10 mg/kg) was 2751 ng/mL and 3640 ng/mL and 1400 ng/mL. For the same molecule, the “Plasma Concentrations” value (IG at 10 mg/kg, Test Run B, 4 hr, 10 mg/kg) was 459 ng/mL and 4502 ng/mL and 11470 ng/mL, the “Plasma Concentrations” value (IG at 10 mg/kg, Test Run B, 5 hr, 10 mg/kg) was 545 ng/mL and 3718 ng/mL and 7783 ng/mL and the “Plasma Concentrations” value (IG at 10 mg/kg, Test Run B, 6 hr, 10 mg/kg) was 2721 ng/mL and 1950 ng/mL. The “Plasma Concentrations” value (IG at 10 mg/kg, Test Run B, 8 hr, 10 mg/kg) was 1566 ng/mL and 1868 ng/mL, the “Plasma Concentrations” value (IV at 1 mg/kg, Test Run C, 2 min, 1 mg/kg) was 21579 ng/mL and 16641 ng/mL and the “Plasma Concentrations” value (IV at 1 mg/kg, Test Run C, 15 min, 1 mg/kg) was 6756 ng/mL and 15283 ng/mL and 11628 ng/mL. For the same molecule, the “Plasma Concentrations” value (IV at 1 mg/kg, Test Run C, 30 min, 1 mg/kg) was 10359 ng/mL and 7921 ng/mL, the “Plasma Concentrations” value (IV at 1 mg/kg, Test Run C, 1 hr, 1 mg/kg) was 2665 ng/mL and 2793 ng/mL and the “Plasma Concentrations” value (IV at 1 mg/kg, Test Run C, 2 hr, 1 mg/kg) was 795 ng/mL and 2362 ng/mL and 1667 ng/mL. For the same molecule, the “Plasma Concentrations” value (IV at 1 mg/kg, Test Run C, 3 hr, 1 mg/kg) was 404 ng/mL and 562 ng/mL, the “Plasma Concentrations” value (IV at 1 mg/kg, Test Run C, 4 hr, 1 mg/kg) was 608 ng/mL and 1223 ng/mL and 1068 ng/mL and the “Plasma Concentrations” value (IV at 1 mg/kg, Test Run C, 6 hr, 1 mg/kg) was 208 ng/mL and 245 ng/mL. The “Plasma Concentrations” value (IV at 1 mg/kg, Test Run D, 2 min, 1 mg/kg) was 7875 ng/mL and 5900 ng/mL, the “Plasma Concentrations” value (IV at 1 mg/kg, Test Run D, 15 min, 1 mg/kg) was 7239 ng/mL and 2016 ng/mL and 897 ng/mL and the “Plasma Concentrations” value (IV at 1 mg/kg, Test Run D, 30 min, 1 mg/kg) was 2356 ng/mL and 1189 ng/mL. The “Plasma Concentrations” value (IV at 1 mg/kg, Test Run D, 1 hr, 1 mg/kg) was 1250 ng/mL and 1614 ng/mL and 3149 ng/mL, the “Plasma Concentrations” value (IV at 1 mg/kg, Test Run D, 2 hr, 1 mg/kg) was 1004 ng/mL and 1055 ng/mL and the “Plasma Concentrations” value (IV at 1 mg/kg, Test Run D, 3 hr, 1 mg/kg) was 451 ng/mL and 557 ng/mL and 1009 ng/mL. The “Plasma Concentrations” value (IV at 1 mg/kg, Test Run D, 4 hr, 1 mg/kg) was 153 ng/mL and 587 ng/mL and 506 ng/mL, the “Plasma Concentrations” value (IV at 1 mg/kg, Test Run D, 6 hr, 1 mg/kg) was 84 ng/mL and 158 ng/mL and the concentration at 2 min (plasma, iv, 1 mg/kg, IV at 1 mg/kg, 2 min, Test Run D table, read-out: Plasma Concentrations, Mean ± SE) was 11600 ± 2770 ng/mL. The concentration at 15 min (plasma, iv, 1 mg/kg, IV at 1 mg/kg, 15 min, Test Run D table, read-out: Plasma Concentrations, Mean ± SE) was 7300 ± 2250 ng/mL, the concentration at 30 min (plasma, iv, 1 mg/kg, IV at 1 mg/kg, 30 min, Test Run D table, read-out: Plasma Concentrations, Mean ± SE) was 4940 ± 1510 ng/mL and the concentration at 1 h (plasma, iv, 1 mg/kg, IV at 1 mg/kg, 1 hr, Test Run D table, read-out: Plasma Concentrations, Mean ± SE) was 2430 ± 326 ng/mL.
